In PubChem BioAssay (NCI) one finds GI50 and TGI data, which are given here for nine compounds.

Each structure is given as a SMILES string. Several values for one entry are separate records, joined by “and”; a condition that tells them apart may be missing. Identical values can stand only once.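 Results reflect a 48-hour exposure of cells in 96-well plates to compound at five concentrations. The concentration for 50% growth inhibition is given as GI50. TGI: total growth inhibition.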

Some test systems named below: 786-0 renal; ACHN renal; HCT-15 colon; HOP-92 NSCLC; K-562 leukemia; LOX IMVI melanoma; MDA-MB-231 breast; NCI-H460 lung; U251 CNS; UACC-257 melanoma.
Experiment in all cases: inhibition of tumour cell growth, NCI panel, 48 h

In the case of `Nc1c(C(=O)Nc2cccc(C(F)(F)F)c2)sc2nc3c(cc12)CCCCCC3`, the GI50 in the assay with 786-0 renal is 1.6 µM; with ACHN renal it was 1.85 µM; in the assay with HCT-15 colon, 2.63 µM; in the assay with HOP-92 NSCLC, 1.7 µM; in the assay on K-562 leukemia, 3.65 µM; in the assay on LOX IMVI melanoma, 3.04 µM. The GI50 in the assay with MDA-MB-231 breast is 3.09 µM; in the assay with NCI-H460 lung, 2.32 µM; in the assay with U251 CNS it was 2.58 µM; in the assay on UACC-257 melanoma it was 4.37 µM. Besides, the TGI in the assay on 786-0 renal is 3.12 µM; in the assay on ACHN renal it was 4.46 µM; with HCT-15 colon it was 15.3 µM; in the assay with HOP-92 NSCLC, 4.86 µM; with K-562 leukemia, 20 µM; in the assay with LOX IMVI melanoma it was 11.2 µM. Further, the TGI in the assay with MDA-MB-231 breast was found to be 10.6 µM; with NCI-H460 lung, 7.52 µM; in the assay on U251 CNS, 10.5 µM; in the assay with UACC-257 melanoma, 22.7 µM.

As for `COc1ncc(-c2ccc3nccc(C#CCCCCC(=O)NO)c3c2)cc1NS(=O)(=O)c1ccc(F)cc1F`, the GI50 is 0.0819 µM in the assay on 786-0 renal; 0.111 µM in the assay with ACHN renal; 0.15 µM in the assay with HCT-15 colon; 0.0156 µM in the assay on HOP-92 NSCLC; 1.98 µM with K-562 leukemia; 0.0968 µM in the assay with LOX IMVI melanoma. Besides, the GI50 in the assay on MDA-MB-231 breast was 0.998 µM; in the assay on NCI-H460 lung, 0.109 µM; in the assay on U251 CNS it was 0.128 µM; in the assay on UACC-257 melanoma, 0.198 µM. The TGI in the assay with 786-0 renal was found to be 3.68 µM; in the assay on ACHN renal it was 12.3 µM; with HCT-15 colon, 13 µM; with HOP-92 NSCLC, 0.106 µM; in the assay with K-562 leukemia it was 16.7 µM; with LOX IMVI melanoma, 1.9 µM. For the same compound, the TGI in the assay on MDA-MB-231 breast came to 7.85 µM; with NCI-H460 lung, 11.2 µM; with U251 CNS, 2.67 µM; in the assay on UACC-257 melanoma it was 1.44 µM.

Take `Cc1c(Cl)c(C)c(Cl)c(O)c1Cl`: the TGI was above 100 µM in the assay with 786-0 renal; 72.5 µM with ACHN renal; 75.6 µM in the assay with HCT-15 colon; 58 µM with HOP-92 NSCLC; 46.3 µM with K-562 leukemia; above 100 µM with LOX IMVI melanoma. In addition, the TGI in the assay on MDA-MB-231 breast is above 100 µM; in the assay on NCI-H460 lung, 65.8 µM; with U251 CNS, 37.7 µM; in the assay on UACC-257 melanoma, 87 µM.

For `COC(=O)Nc1nc2ccc(C(=O)c3ccc(F)cc3)cc2[nH]1`, the GI50 was 0.578 µM with 786-0 renal; 1.05 µM with ACHN renal; 0.0909 µM in the assay with HCT-15 colon; 4.81 µM with HOP-92 NSCLC; 0.762 µM in the assay on LOX IMVI melanoma; 0.563 µM in the assay on MDA-MB-231 breast. Also, the GI50 is 0.336 µM in the assay with NCI-H460 lung, 0.287 µM in the assay with U251 CNS and 68 µM in the assay on UACC-257 melanoma. Further, the TGI with 786-0 renal was 7.83 µM; in the assay on ACHN renal, above 100 µM; with HCT-15 colon it was above 100 µM; in the assay on HOP-92 NSCLC it was 50.3 µM; in the assay with LOX IMVI melanoma, above 100 µM; with MDA-MB-231 breast, 13.6 µM. Moreover, the TGI in the assay with NCI-H460 lung was above 100 µM; with U251 CNS it was 6.68 µM; with UACC-257 melanoma, above 100 µM.

For the compound `CCCCCCCCCCCCCCCCCC[S+](C)CC` (stereo not given), the GI50 is 1.25 µM in the assay on 786-0 renal; 1.33 µM in the assay with ACHN renal; 2.84 µM in the assay with HCT-15 colon; 1.38 µM in the assay on HOP-92 NSCLC; 1.67 µM in the assay with MDA-MB-231 breast. In addition, the TGI in the assay with 786-0 renal was found to be 2.66 µM; with ACHN renal it was 2.96 µM; with HCT-15 colon, 16.9 µM; in the assay with HOP-92 NSCLC it was 4.5 µM; in the assay on MDA-MB-231 breast, 3.83 µM.

With `COc1cc2c(cc1[N+](=O)[O-])C(=O)C(Br)(Br)CCC2`, the TGI was 2.73 µM with 786-0 renal; 4.47 µM in the assay on ACHN renal; 3.67 µM in the assay on HCT-15 colon; 17 µM in the assay with HOP-92 NSCLC; 6.27 µM in the assay with K-562 leukemia; 1.97 µM in the assay with LOX IMVI melanoma. Moreover, the TGI is 9.42 µM with MDA-MB-231 breast, 20.1 µM with NCI-H460 lung, 9.04 µM in the assay on U251 CNS and 26.7 µM in the assay with UACC-257 melanoma.

Take `CN1CCN(CCC=C2c3ccccc3Sc3ccc(S(=O)(=O)N(C)C)cc32)CC1`: the GI50 in the assay with 786-0 renal was 4.12 µM and 6.73 µM; in the assay with ACHN renal, 5.27 µM and 10.2 µM; in the assay on HCT-15 colon, 3.3 µM and 2.52 µM; in the assay with HOP-92 NSCLC it was 0.516 µM and 2.84 µM; in the assay on K-562 leukemia, 2.21 µM and 1.63 µM; in the assay with LOX IMVI melanoma, 1.7 µM and 2.79 µM. In addition, the GI50 in the assay on MDA-MB-231 breast is 1.82 µM and 4.4 µM; with NCI-H460 lung it was 3.51 µM and 3.47 µM; in the assay with UACC-257 melanoma it was 2.02 µM and 1.8 µM. For the same compound, the TGI in the assay on 786-0 renal was 16.2 µM and 20.8 µM; with ACHN renal it was 27.3 µM and 27.6 µM; with HCT-15 colon, > 100 µM and 10.3 µM; in the assay with HOP-92 NSCLC, 4.54 µM and 20.3 µM; in the assay with K-562 leukemia it was 4.72 µM; in the assay on LOX IMVI melanoma, 3.7 µM and 8.66 µM. Further, the TGI in the assay with MDA-MB-231 breast was 4.43 µM and 16.8 µM; in the assay on NCI-H460 lung it was 14.8 µM and 14 µM; in the assay on UACC-257 melanoma, 3.73 µM and 4.03 µM.

On to `CO/C(=C1/NC(=O)C(Cc2ccc(O)c(Br)c2)N(C)C(=O)C(C)NC(=O)CCC/C=C(\C)CCC(C)OC1=O)c1ccccc1` (stereo not given), for which the GI50 was 0.0263 µM in the assay on 786-0 renal; 0.0192 µM in the assay on ACHN renal; 0.0632 µM in the assay on HCT-15 colon; 0.0246 µM with HOP-92 NSCLC; 0.335 µM in the assay on K-562 leukemia; 0.0159 µM in the assay with LOX IMVI melanoma. For the same compound, the GI50 in the assay with MDA-MB-231 breast is 0.0348 µM; in the assay with U251 CNS, 0.0199 µM; in the assay on UACC-257 melanoma it was 0.029 µM. For the same compound, the TGI was 0.0692 µM in the assay with 786-0 renal; 0.0623 µM with ACHN renal; 13.4 µM in the assay on HCT-15 colon; 0.0612 µM in the assay with HOP-92 NSCLC; above 100 µM with K-562 leukemia; 0.653 µM with LOX IMVI melanoma. The TGI worked out at 6.58 µM in the assay with MDA-MB-231 breast, 3.49 µM with NCI-H460 lung, 0.0909 µM with U251 CNS and 0.15 µM in the assay on UACC-257 melanoma.

Turning to `O=C(O)c1ccc(/C=N/N=C2c3ccccc3-c3ccccc32)cc1`, the TGI in the assay on 786-0 renal, in the assay on ACHN renal, in the assay with HCT-15 colon, with HOP-92 NSCLC, in the assay on K-562 leukemia and in the assay with LOX IMVI melanoma was above 100 µM in each case. Moreover, the TGI in the assay on MDA-MB-231 breast, with NCI-H460 lung, with U251 CNS and in the assay with UACC-257 melanoma was above 100 µM each time.
